Results from patent US11998539B2, “Substituted aminoquinolones as DGKalpha inhibitors for immune activation” (Bayer Aktiengesellschaft, priority 2019, dated 2024).

Target: DGKα (Homo sapiens (Human), UniProt P23743)
Assay: Human DGKα kinase activity inhibition assay (ADP-Glo)
Assay type: biochemical
Conditions: recombinant full-length human DGKα, 55 μM ATP, 7 μM 1,2-dioleoyl-sn-glycerol, read-out: IC50 values of examples in in vitro human DGKa kinase activity inhibition assays
Procedure, shortened: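 Recombinant full-length human DGKα (C-terminal FLAG, from insect cells) phosphorylated 1,2-dioleoyl-sn-glycerol presented in octyl-glucopyranoside micelles. ADP formed was quantified by ADP-Glo luminescence. Compounds were added from 100-fold DMSO stocks.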

DGKα, sequence (P23743 other isoform, or with tags, fused parts or gaps): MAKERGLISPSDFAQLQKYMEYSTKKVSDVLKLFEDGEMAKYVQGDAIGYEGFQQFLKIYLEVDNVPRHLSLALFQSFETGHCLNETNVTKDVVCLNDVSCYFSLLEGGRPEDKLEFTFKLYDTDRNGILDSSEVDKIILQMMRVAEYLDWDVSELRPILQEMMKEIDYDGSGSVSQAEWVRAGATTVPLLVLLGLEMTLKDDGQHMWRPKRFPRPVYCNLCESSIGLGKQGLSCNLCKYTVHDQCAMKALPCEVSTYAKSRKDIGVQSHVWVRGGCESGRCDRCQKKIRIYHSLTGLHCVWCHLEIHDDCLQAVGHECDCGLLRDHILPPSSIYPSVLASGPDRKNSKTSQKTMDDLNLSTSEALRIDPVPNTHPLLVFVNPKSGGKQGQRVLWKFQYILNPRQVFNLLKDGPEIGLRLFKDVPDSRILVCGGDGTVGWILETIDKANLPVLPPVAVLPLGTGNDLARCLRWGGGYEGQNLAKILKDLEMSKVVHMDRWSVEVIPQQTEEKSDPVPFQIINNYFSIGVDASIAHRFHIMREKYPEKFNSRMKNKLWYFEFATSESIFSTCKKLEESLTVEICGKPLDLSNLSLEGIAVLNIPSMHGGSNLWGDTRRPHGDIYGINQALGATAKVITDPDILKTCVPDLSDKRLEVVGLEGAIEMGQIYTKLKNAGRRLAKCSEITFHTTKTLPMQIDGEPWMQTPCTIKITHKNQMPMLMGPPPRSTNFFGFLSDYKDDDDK

Compound	IC50
Cc1ccc2oc(C3(C)CCN(c4c(C(N)=O)c(=O)n(C)c5cc(O)c(Br)cc45)CC3)nc2c1 [Example 512, 6-bromo-7-hydroxy-1-methyl-4-[4-methyl-4-(5-methyl-1,3-benzoxazol-2-yl)piperidin-1-yl]-2-oxo-1,2-dihydroquinoline-3-carboxamide]	0.8 nM
Cn1c(=O)c(C#N)c(N2CCC(c3nc4cc(N5CCCC5=O)ccc4o3)CC2)c2ccccc21 [Example 334, 1-methyl-2-oxo-4-{4-[5-(2-oxopyrrolidin-1-yl)-1,3-benzoxazol-2-yl]piperidin-1-yl}-1,2-dihydroquinoline-3-carbonitrile]	100 nM
Cn1c(=O)c(C#N)c(N2CCC(c3nc4ccccc4s3)CC2)c2ccccc21 [Example 12, 4-[4-(1,3-benzothiazol-2-yl)piperidin-1-yl]-1-methyl-2-oxo-1,2-dihydroquinoline-3-carbonitrile]	3.5 nM
Cc1ccc2oc(C3(C)CCN(c4c(C#N)c(=O)n(C)c5cc(CC6COC6)ccc45)CC3)nc2c1 [Example 285, 1-methyl-4-[4-methyl-4-(5-methyl-1,3-benzoxazol-2-yl)piperidin-1-yl]-7-[(oxetan-3-yl)methyl]-2-oxo-1,2-dihydroquinoline-3-carbonitrile]	10 nM
CCn1c(=O)c(C#N)c(N2CCC(c3ccc(Cl)cc3)CC2)c2ccccc21 [Example 333, 4-[4-(4-chlorophenyl)piperidin-1-yl]-1-ethyl-2-oxo-1,2-dihydroquinoline-3-carbonitrile]	172 nM
COCCc1ccc2nc(C3CCN(c4c(C#N)c(=O)n(C)c5ccccc45)CC3)oc2c1 [Example 284, 4-{4-[6-(2-methoxyethyl)-1,3-benzoxazol-2-yl]piperidin-1-yl}-1-methyl-2-oxo-1,2-dihydroquinoline-3-carbonitrile]	9.3 nM
COc1ccc(C2CCN(c3c(C(N)=O)c(=O)n(C)c4ccccc34)CC2)cc1 [Example 112, 4-[4-(4-methoxyphenyl)piperidin-1-yl]-1-methyl-2-oxo-1,2-dihydroquinoline-3-carboxamide]	4.5 nM
Cc1cccc2oc(C3CCN(c4c(C#N)c(=O)n(C)c5ccccc45)CC3)nc12 [Example 17, 1-methyl-4-[4-(4-methyl-1,3-benzoxazol-2-yl)piperidin-1-yl]-2-oxo-1,2-dihydroquinoline-3-carbonitrile]	12 nM
Cc1ccc2nc(C3(C)CCN(c4c(C#N)c(=O)n(C)c5ccc(Cl)cc45)CC3)oc2c1 [Example 192, 6-chloro-1-methyl-4-[4-methyl-4-(6-methyl-1,3-benzoxazol-2-yl)piperidin-1-yl]-2-oxo-1,2-dihydroquinoline-3-carbonitrile]	1360 nM
Cc1ccc2nc(C3CCN(c4c(C#N)c(=O)n(C)c5ccc(C)cc45)CC3)oc2c1 [Example 184, 1,6-dimethyl-4-[4-(6-methyl-1,3-benzoxazol-2-yl)piperidin-1-yl]-2-oxo-1,2-dihydroquinoline-3-carbonitrile]	1.5 nM
Cn1c(=O)c(C#N)c(N2CCC(c3ccc(C(F)(F)F)cc3)CC2)c2ccccc21 [Example 61, 1-methyl-2-oxo-4-{4-[4-(trifluoromethyl)phenyl]piperidin-1-yl}-1,2-dihydroquinoline-3-carbonitrile]	37 nM
Cn1c(=O)c(C#N)c(N2CCC(c3nc4cc(C5COC5)ccc4o3)CC2)c2ccccc21 [Example 287, 1-methyl-4-{4-[5-(oxetan-3-yl)-1,3-benzoxazol-2-yl]piperidin-1-yl}-2-oxo-1,2-dihydroquinoline-3-carbonitrile]	22 nM
Cn1c(=O)c(C(N)=O)c(N2CCC(c3nc4cc(F)c(F)cc4o3)CC2)c2ccccc21 [Example 109, 4-[4-(5,6-difluoro-1,3-benzoxazol-2-yl)piperidin-1-yl]-1-methyl-2-oxo-1,2-dihydroquinoline-3-carboxamide]	2.1 nM
Cn1c(=O)c(C#N)c(N2CCC(c3cccc(C4CC4)c3)CC2)c2ccccc21 [Example 45, 4-[4-(3-cyclopropylphenyl)piperidin-1-yl]-1-methyl-2-oxo-1,2-dihydroquinoline-3-carbonitrile]	2.1 nM
